Data taken from patent EP0831835B1, “TREATING ANOREXIA” (ELI LILLY AND COMPANY, priority 1995, dated 1996).

Key:
human subjects = experiment: double blind multicenter clinical trial versus haloperidol; type: in vivo; settings: 1,996 human subjects, 5-20 mg/day, 6 weeks
Text: Another double blind multicenter clinical trial was completed using 1,996 human subjects. […] The study continued for 6 weeks, with possible extensions.

[1] = system: muscarinic cholinergic receptor; settings: results of pharmacological studies
[2] = detection of radiolabelled compound in saliva; type: in vivo
Procedure: For example, in the treatment of adult humans, dosages of from about 0.25 to 50 mg, preferably from 1 to 30 mg, and most preferably 1 to 20 mg per day may be used. A once a day dosage is normally sufficient, although divided doses may be administered. For treatment of cognitive dysfunction, a dose range of from 1 to 30 mg, preferably 1 to 20 mg per day is suitable.

human patients = experiment: double-blind multicenter clinical trial versus placebo; type: in vivo; settings: human patients randomized to compound or placebo
dogs = experiment: animal studies in dogs (weight); type: in vivo
5-HT1C receptor = target: T1, 5-HT1C receptor (Homo sapiens, UniProt P28335); experiment: pharmacological studies, activity at 5-HT1C receptor
T1 sequence (P28335 33-458): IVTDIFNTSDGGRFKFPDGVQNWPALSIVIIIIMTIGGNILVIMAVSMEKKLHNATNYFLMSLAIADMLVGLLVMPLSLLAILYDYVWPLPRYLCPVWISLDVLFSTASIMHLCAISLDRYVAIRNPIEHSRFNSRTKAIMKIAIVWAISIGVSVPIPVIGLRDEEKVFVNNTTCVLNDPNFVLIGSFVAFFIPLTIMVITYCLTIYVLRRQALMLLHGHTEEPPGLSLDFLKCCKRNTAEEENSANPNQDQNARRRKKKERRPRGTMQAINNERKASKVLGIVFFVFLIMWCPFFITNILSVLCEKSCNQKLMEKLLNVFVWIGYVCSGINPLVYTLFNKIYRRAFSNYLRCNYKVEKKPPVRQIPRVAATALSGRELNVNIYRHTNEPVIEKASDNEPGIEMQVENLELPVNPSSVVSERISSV

rodents = experiment: animal studies in rodents (food intake / weight); type: in vivo, Male Sprague Dawley CD rats; settings: many such animals
Procedure: Male Sprague Dawley CD rats (Charles River, Wilmington, Mass.) are individually housed in cages with ad libitum access to Animal Chow and tap water. Temperature is maintained at approximately 21° C. Rats are adapted to vivarium conditions for at least a week before tests begin.
At the start of the experiments, the rats are weighed. […] Tests are conducted every 3-4 days. Food intake (± 0.1 g) is recorded hourly for the 5 h after intubation and after 24 h.

SMILES: Cc1cc2c(s1)Nc1ccccc1N=C2N1CCN(C)CC1 [2-methyl-4-(4-methyl-1-piperazinyl)-10H-thieno[2,3-b][1,5]benzodiazepine]
- appetite (human subjects): increase in appetite
- weight gain (human subjects): statistically significant dose dependent weight gain
- muscarinic cholinergic receptor activity [1]: has muscarinic cholinergic receptor activity
- detection in saliva [2]: can be detected in the saliva
- usefulness for the treatment of anorexia (human patients): can be useful for the treatment of anorexia
- effectiveness for treatment of clinically significant decrease in appetite (dogs): would not be effective
- weight change (dogs; many such animals): lost weight
- activity at the 5-HT1C receptor (5-HT1C receptor): active
- weight change (rodents): lost weight
